Test results published in patent US20240208992A1, “MACROCYCLES AS CFTR MODULATORS” (Idorsia Pharmaceuticals Ltd, priority 2021, published 2024).

Biological target: human F508del-CFTR (Homo sapiens, UniProt P13569, DEL508-508)
Assay: F508del-CFTR cell surface expression (corrector activity), DiscoveRx ß-galactosidase complementation chemiluminescence assay in recombinant U2OS cell line;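 also: U2OS cells co-expressing ProLink-tagged F508del-CFTR and a membrane-anchored enzyme acceptor, where more surface CFTR restores β-galactosidase activity measured by chemiluminescence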
Conditions: for EC50: EC50, F508del-CFTR cell surface expression, U2OS cells, 16h compound incubation, geomean values; for Emax: U2OS, in relation to Emax of corrector lumacaftor (=100%), arithmetic mean values

Chain of human F508del-CFTR (P13569 with tags, fused parts or gaps DEL508-508): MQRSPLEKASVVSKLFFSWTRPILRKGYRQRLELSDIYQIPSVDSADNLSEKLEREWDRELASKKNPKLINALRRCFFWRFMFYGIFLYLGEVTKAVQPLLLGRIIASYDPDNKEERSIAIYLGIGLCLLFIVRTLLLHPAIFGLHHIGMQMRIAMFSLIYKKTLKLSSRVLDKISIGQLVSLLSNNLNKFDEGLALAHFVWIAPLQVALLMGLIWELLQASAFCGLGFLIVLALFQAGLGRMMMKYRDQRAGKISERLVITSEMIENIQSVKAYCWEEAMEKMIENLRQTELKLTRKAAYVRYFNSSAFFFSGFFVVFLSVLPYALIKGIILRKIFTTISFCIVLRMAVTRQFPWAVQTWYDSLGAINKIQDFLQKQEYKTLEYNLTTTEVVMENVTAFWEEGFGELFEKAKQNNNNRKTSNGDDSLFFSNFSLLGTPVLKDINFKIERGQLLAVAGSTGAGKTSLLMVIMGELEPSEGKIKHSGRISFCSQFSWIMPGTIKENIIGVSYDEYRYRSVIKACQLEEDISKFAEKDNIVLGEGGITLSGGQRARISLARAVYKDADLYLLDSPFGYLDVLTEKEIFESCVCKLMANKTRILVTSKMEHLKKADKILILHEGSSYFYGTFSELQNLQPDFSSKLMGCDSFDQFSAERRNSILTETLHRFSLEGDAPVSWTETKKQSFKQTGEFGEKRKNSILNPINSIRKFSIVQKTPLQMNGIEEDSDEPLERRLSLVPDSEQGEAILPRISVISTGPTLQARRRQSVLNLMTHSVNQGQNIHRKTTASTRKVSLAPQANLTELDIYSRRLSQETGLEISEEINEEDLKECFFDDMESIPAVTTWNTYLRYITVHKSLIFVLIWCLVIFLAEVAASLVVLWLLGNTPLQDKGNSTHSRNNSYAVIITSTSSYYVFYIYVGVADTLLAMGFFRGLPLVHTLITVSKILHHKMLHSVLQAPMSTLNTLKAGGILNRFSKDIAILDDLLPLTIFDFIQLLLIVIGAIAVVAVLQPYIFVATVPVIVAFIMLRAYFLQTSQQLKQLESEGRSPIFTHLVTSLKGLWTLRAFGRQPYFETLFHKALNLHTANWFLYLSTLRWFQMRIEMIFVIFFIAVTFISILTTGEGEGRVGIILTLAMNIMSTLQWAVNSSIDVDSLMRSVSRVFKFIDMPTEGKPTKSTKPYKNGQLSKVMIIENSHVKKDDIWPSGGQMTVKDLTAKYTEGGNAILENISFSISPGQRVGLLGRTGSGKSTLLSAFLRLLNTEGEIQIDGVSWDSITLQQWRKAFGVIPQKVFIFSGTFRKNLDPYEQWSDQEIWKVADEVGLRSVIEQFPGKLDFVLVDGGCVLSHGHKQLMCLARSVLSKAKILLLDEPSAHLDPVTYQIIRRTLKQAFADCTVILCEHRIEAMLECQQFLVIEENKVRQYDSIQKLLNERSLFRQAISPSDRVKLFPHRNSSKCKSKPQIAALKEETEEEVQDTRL

| Compound | EC50 | Emax |
| --- | --- | --- |
| COc1cccc(CCNC(=O)[C@@H]2CC(=O)N(C)[C@@H](CC(C)C)C(=O)N3CCN(S(=O)(=O)Cc4ccccc4)C[C@@H]3C(=O)N[C@H](Cc3ccccc3)COc3ccc4ccccc4c3C(=O)N2)c1 [Example 736, (4aR,7R,18S,22S)-7-benzyl-3-(benzylsulfonyl)-22-isobutyl-N-(3-methoxyphenethyl)-21-methyl-5,16,20,23-tetraoxo-2,3,4,4a,5,6,7,8,16,17,18,19,20,21,22,23-hexadecahydro-1H-naphtho[1,2-p]pyrazino[2,1-f][1]oxa[4,7,10,14]tetraazacycloheptadecine-18-carboxamide] | 153 nM | 286% |
| COc1cccc(CCNC(=O)[C@@H]2CC(=O)N(C)[C@@H](CC(C)C)C(=O)N3CCN(S(=O)(=O)c4ccc5oc(=O)[nH]c5c4)C[C@@H]3C(=O)N[C@H](Cc3ccccc3)COc3ccc4ccccc4c3C(=O)N2)c1 [Example 737, (4aR,7R,18S,22S)-7-benzyl-22-isobutyl-N-(3-methoxyphenethyl)-21-methyl-5,16,20,23-tetraoxo-3-((2-oxo-2,3-dihydrobenzo[d]oxazol-5-yl)sulfonyl)-2,3,4,4a,5,6,7,8,16,17,18,19,20,21,22,23-hexadecahydro-1H-naphtho[1,2-p]pyrazino[2,1-f][1]oxa[4,7,10,14]tetraazacycloheptadecine-18-carboxamide] | 665 nM | 298% |
| COc1cccc(CCNC(=O)[C@@H]2CC(=O)N(C)[C@@H](CC(C)C)C(=O)N3CCN(S(=O)(=O)Cc4cccc5cccnc45)C[C@@H]3C(=O)N[C@H](Cc3ccccc3)COc3ccc4ccccc4c3C(=O)N2)c1 [Example 738, (4aR,7R,18S,22S)-7-benzyl-22-isobutyl-N-(3-methoxyphenethyl)-21-methyl-5,16,20,23-tetraoxo-3-((quinolin-8-ylmethyl)sulfonyl)-2,3,4,4a,5,6,7,8,16,17,18,19,20,21,22,23-hexadecahydro-1H-naphtho[1,2-p]pyrazino[2,1-f][1]oxa[4,7,10,14]tetraazacycloheptadecine-18-carboxamide] | 110 nM | 256% |
| COc1cccc(CCNC(=O)[C@@H]2CC(=O)N(C)[C@@H](CC(C)C)C(=O)N3CCN(S(=O)(=O)c4cccc(OC)c4)C[C@@H]3C(=O)N[C@H](Cc3ccccc3)COc3ccc4ccccc4c3C(=O)N2)c1 [Example 739, (4aR,7R,18S,22S)-7-benzyl-22-isobutyl-N-(3-methoxyphenethyl)-3-((3-methoxyphenyl)sulfonyl)-21-methyl-5,16,20,23-tetraoxo-2,3,4,4a,5,6,7,8,16,17,18,19,20,21,22,23-hexadecahydro-1H-naphtho[1,2-p]pyrazino[2,1-f][1]oxa[4,7,10,14]tetraazacycloheptadecine-18-carboxamide] | 101 nM | 297% |
| COc1cccc(CCNC(=O)[C@@H]2CC(=O)N(C)[C@@H](CC(C)C)C(=O)N3CCN(S(=O)(=O)c4cc(OC)ccc4F)C[C@@H]3C(=O)N[C@H](Cc3ccccc3)COc3ccc4ccccc4c3C(=O)N2)c1 [Example 740, (4aR,7R,18S,22S)-7-benzyl-3-((2-fluoro-5-methoxyphenyl)sulfonyl)-22-isobutyl-N-(3-methoxyphenethyl)-21-methyl-5,16,20,23-tetraoxo-2,3,4,4a,5,6,7,8,16,17,18,19,20,21,22,23-hexadecahydro-1H-naphtho[1,2-p]pyrazino[2,1-f][1]oxa[4,7,10,14]tetraazacycloheptadecine-18-carboxamide] | 111 nM | 280% |
| COc1cccc(CCNC(=O)[C@@H]2CC(=O)N(C)[C@@H](CC(C)C)C(=O)N3CCN(S(=O)(=O)c4ccc5c(c4)OCCN5C)C[C@@H]3C(=O)N[C@H](Cc3ccccc3)COc3ccc4ccccc4c3C(=O)N2)c1 [Example 741, (4aR,7R,18S,22S)-7-benzyl-22-isobutyl-N-(3-methoxyphenethyl)-21-methyl-3-((4-methyl-3,4-dihydro-2H-benzo[b][1,4]oxazin-7-yl)sulfonyl)-5,16,20,23-tetraoxo-2,3,4,4a,5,6,7,8,16,17,18,19,20,21,22,23-hexadecahydro-1H-naphtho[1,2-p]pyrazino[2,1-f][1]oxa[4,7,10,14]tetraazacycloheptadecine-18-carboxamide] | 116 nM | 294% |
| COc1cccc(CCNC(=O)[C@@H]2CC(=O)N(C)[C@@H](CC(C)C)C(=O)N3CCN(S(=O)(=O)c4cccnc4)C[C@@H]3C(=O)N[C@H](Cc3ccccc3)COc3ccc4ccccc4c3C(=O)N2)c1 [Example 742, (4aR,7R,18S,22S)-7-benzyl-22-isobutyl-N-(3-methoxyphenethyl)-21-methyl-5,16,20,23-tetraoxo-3-(pyridin-3-ylsulfonyl)-2,3,4,4a,5,6,7,8,16,17,18,19,20,21,22,23-hexadecahydro-1H-naphtho[1,2-p]pyrazino[2,1-f][1]oxa[4,7,10,14]tetraazacycloheptadecine-18-carboxamide] | 214 nM | 246% |
| COCCCS(=O)(=O)N1CCN2C(=O)[C@H](CC(C)C)N(C)C(=O)C[C@@H](C(=O)NCCc3cccc(OC)c3)NC(=O)c3c(ccc4ccccc34)OC[C@@H](Cc3ccccc3)NC(=O)[C@H]2C1 [Example 743, (4aR,7R,18S,22S)-7-benzyl-22-isobutyl-N-(3-methoxyphenethyl)-3-((3-methoxypropyl)sulfonyl)-21-methyl-5,16,20,23-tetraoxo-2,3,4,4a,5,6,7,8,16,17,18,19,20,21,22,23-hexadecahydro-1H-naphtho[1,2-p]pyrazino[2,1-f][1]oxa[4,7,10,14]tetraazacycloheptadecine-18-carboxamide] | 207 nM | 217% |
| COc1cccc(CCNC(=O)[C@@H]2CC(=O)N(C)[C@@H](CC(C)C)C(=O)N3CCN(S(=O)(=O)c4cncc(OC)c4)C[C@@H]3C(=O)N[C@H](Cc3ccccc3)COc3ccc4ccccc4c3C(=O)N2)c1 [Example 744, (4aR,7R,18S,22S)-7-benzyl-22-isobutyl-N-(3-methoxyphenethyl)-3-((5-methoxypyridin-3-yl)sulfonyl)-21-methyl-5,16,20,23-tetraoxo-2,3,4,4a,5,6,7,8,16,17,18,19,20,21,22,23-hexadecahydro-1H-naphtho[1,2-p]pyrazino[2,1-f][1]oxa[4,7,10,14]tetraazacycloheptadecine-18-carboxamide] | 178 nM | 239% |
| COc1cccc(CCNC(=O)[C@@H]2CC(=O)N(C)[C@@H](CC(C)C)C(=O)N3CCN(S(=O)(=O)CCN4CCOCC4)C[C@@H]3C(=O)N[C@H](Cc3ccccc3)COc3ccc4ccccc4c3C(=O)N2)c1 [Example 745, (4aR,7R,18S,22S)-7-benzyl-22-isobutyl-N-(3-methoxyphenethyl)-21-methyl-3-((2-morpholinoethyl)sulfonyl)-5,16,20,23-tetraoxo-2,3,4,4a,5,6,7,8,16,17,18,19,20,21,22,23-hexadecahydro-1H-naphtho[1,2-p]pyrazino[2,1-f][1]oxa[4,7,10,14]tetraazacycloheptadecine-18-carboxamide] | 693 nM | 206% |
| COc1cccc(CCNC(=O)[C@@H]2CC(=O)N(C)[C@@H](CC(C)C)C(=O)N3CCN(S(=O)(=O)CC4CCOCC4)C[C@@H]3C(=O)N[C@H](Cc3ccccc3)COc3ccc4ccccc4c3C(=O)N2)c1 [Example 746, (4aR,7R,18S,22S)-7-benzyl-22-isobutyl-N-(3-methoxyphenethyl)-21-methyl-5,16,20,23-tetraoxo-3-(((tetrahydro-2H-pyran-4-yl)methyl)sulfonyl)-2,3,4,4a,5,6,7,8,16,17,18,19,20,21,22,23-hexadecahydro-1H-naphtho[1,2-p]pyrazino[2,1-f][1]oxa[4,7,10,14]tetraazacycloheptadecine-18-carboxamide] | 211 nM | 213% |
| COc1cccc(CCNC(=O)[C@@H]2CC(=O)N(C)[C@@H](CC(C)C)C(=O)N3CCN(S(=O)(=O)c4ccccn4)C[C@@H]3C(=O)N[C@H](Cc3ccccc3)COc3ccc4ccccc4c3C(=O)N2)c1 [Example 747, (4aR,7R,18S,22S)-7-benzyl-22-isobutyl-N-(3-methoxyphenethyl)-21-methyl-5,16,20,23-tetraoxo-3-(pyridin-2-ylsulfonyl)-2,3,4,4a,5,6,7,8,16,17,18,19,20,21,22,23-hexadecahydro-1H-naphtho[1,2-p]pyrazino[2,1-f][1]oxa[4,7,10,14]tetraazacycloheptadecine-18-carboxamide] | 234 nM | 213% |
| Cc1cc(CCNC(=O)[C@@H]2CC(=O)N(C)[C@@H](CC(C)C)C(=O)N3CCN(S(=O)(=O)c4ccc5c(c4)OCCN5C)C[C@@H]3C(=O)N[C@H](Cc3ccccc3)COc3cnc4ccccc4c3C(=O)N2)on1 [Example 748, (9S,13S,19aR,22R)-22-benzyl-13-isobutyl-12-methyl-18-((4-methyl-3,4-dihydro-2H-benzo[b][1,4]oxazin-7-yl)sulfonyl)-N-(2-(3-methylisoxazol-5-yl)ethyl)-7,11,14,20-tetraoxo-7,8,9,10,11,12,13,14,17,18,19,19a,20,21,22,23-hexadecahydro-16H-pyrazino[2′,11:6,7][1]oxa[4,7,10,14]tetraazacycloheptadecino[17,16-c]quinoline-9-carboxamide] | 529 nM | 295% |
| Cc1cc(CCNC(=O)[C@@H]2CC(=O)N(C)[C@@H](CC(C)C)C(=O)N3CCN(S(=O)(=O)c4cccc(OC(F)(F)F)c4)C[C@@H]3C(=O)N[C@H](Cc3ccccc3)COc3cnc4ccccc4c3C(=O)N2)on1 [Example 749, (9S,13S,19aR,22R)-22-benzyl-13-isobutyl-12-methyl-N-(2-(3-methylisoxazol-5-yl)ethyl)-7,11,14,20-tetraoxo-18-((3-(trifluoromethoxy)phenyl)sulfonyl)-7,8,9,10,11,12,13,14,17,18,19,19a,20,21,22,23-hexadecahydro-16H-pyrazino[2′,1′:6,7][1]oxa[4,7,10,14]tetraazacycloheptadecino[17,16-c]quinoline-9-carboxamide] | 153 nM | 301% |
